What follows are compounds tested against T1, human Bradykinin B1 receptor (Homo sapiens, UniProt P46663) (assay: Calcium flux assay (FLIPR), CHO-K1 cells expressing human Bradykinin B1 receptor, absence of 0.1% BSA (hB1 free IC50)). Conditions: absence of 0.1% BSA in assay buffer.
T1 construct: host or cells: CHO-K1
T1 sequence (P46663 1-353): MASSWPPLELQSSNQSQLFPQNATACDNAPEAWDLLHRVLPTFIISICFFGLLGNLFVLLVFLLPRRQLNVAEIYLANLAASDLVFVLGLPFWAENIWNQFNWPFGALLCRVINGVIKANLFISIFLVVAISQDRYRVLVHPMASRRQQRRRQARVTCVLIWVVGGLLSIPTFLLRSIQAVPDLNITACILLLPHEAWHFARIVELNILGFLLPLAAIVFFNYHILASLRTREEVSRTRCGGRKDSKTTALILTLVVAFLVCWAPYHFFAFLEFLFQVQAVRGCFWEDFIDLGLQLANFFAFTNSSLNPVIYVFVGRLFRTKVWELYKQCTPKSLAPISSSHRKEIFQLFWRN
Type: cell-based
Procedure, shortened: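 CHO-K1 hB1-D1 cells, dye-loaded, given compounds (8 concentrations, triplicate, 1% DMSO) 30 min at 28° C, then stimulated with selective B1 agonist peptide; Ca2+ fluorescence read at 538 nm on FLIPR. Peak response normalised to DMSO and 20 µM Lys-(Des-Arg-Leu)-Bradykinin full inhibition; IC50 fitted.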

| Compound | IC50 [nM] |
| --- | --- |
| CCn1cc(-c2c(F)cc(NC(=O)C3(c4ccc(OC(F)(F)F)cc4F)CC3)cc2C(=O)O)cn1 [Example 139, 2-(1-Ethyl-1H-pyrazol-4-yl)-3-fluoro-5-[({1-[2-fluoro-4-(trifluoromethoxy)phenyl]cyclopropyl}carbonyl)amino]benzoic acid] | 13 |
| CC(C)n1cc(-c2c(F)cc(NC(=O)C3(c4ccc(Cl)cc4F)CC3)cc2C(=O)O)cn1 [Example 140, 5-({[1-(4-Chloro-2-fluorophenyl)cyclopropyl]carbonyl}amino)-3-fluoro-2-(1-isopropyl-1H-pyrazol-4-yl)benzoic acid] | 21 |
| O=C(O)c1cc(NC(=O)C2(c3ccccc3)CC2)cc(F)c1-c1cnn(C2CCC2)c1 [Example 141, 2-(1-Cyclobutyl-1H-pyrazol-4-yl)-3-fluoro-5-{[(1-phenylcyclopropyl)carbonyl]amino}benzoic acid] | 2800 |
| O=C(O)c1cc(NC(=O)C2(Cc3ccc(Cl)cc3)CC2)cc(F)c1-c1cnn(C2CCC2)c1 [Example 142, 5-({[1-(4-Chlorobenzyl)cyclopropyl]carbonyl}amino)-2-(1-cyclobutyl-1H-pyrazol-4-yl)-3-fluorobenzoic acid] | 3100 |
| CC1CCC(C2(C(=O)Nc3cc(F)c(-c4cnn(C5CCC5)c4)c(C(=O)O)c3)CC2)CC1 (stereo not shown) [Example 145, 2-(1-Cyclobutyl-1H-pyrazol-4-yl)-3-fluoro-5-({[1-(4-methylcyclohexyl)cyclopropyl]carbonyl}amino)benzoic acid] | 160 |
| Cc1ccc(C2(C(=O)Nc3ccc(-c4cnn(C5CC5)c4)c(C(=O)O)c3)CC2)c(F)c1 [Example 150, 2-(1-Cyclopropyl-1H-pyrazol-4-yl)-5-({[1-(2-fluoro-4-methylphenyl)cyclopropyl]carbonyl}amino)benzoic acid] | 500 |
| CC1(Cn2cc(-c3ccc(NC(=O)C4(c5ccc(C(F)(F)F)cc5F)CC4)cc3C(=O)O)cn2)CC1 [Example 151, 5-[({1-[2-Fluoro-4-(trifluoromethyl)phenyl]cyclopropyl}carbonyl)amino]-2-{1-[(1-methylcyclopropyl)methyl]-1H-pyrazol-4-yl}benzoic acid] | 22 |
| CC1(Cn2cc(-c3ccc(NC(=O)C4(c5ccc(OC(F)(F)F)cc5F)CC4)cc3C(=O)O)cn2)CC1 [Example 152, 5-[({1-[2-Fluoro-4-(trifluoromethoxy)phenyl]cyclopropyl}carbonyl)amino]-2-{1-[(1-methylcyclopropyl)methyl]-1H-pyrazol-4-yl}benzoic acid] | 8.1 |
| CC(C1CC1)n1cc(-c2ccc(NC(=O)C3(c4ccc(C(F)(F)F)cc4F)CC3)cc2C(=O)O)cn1 (stereo not shown) [Example 153, 2-[1-(1-Cyclopropylethyl)-1H-pyrazol-4-yl]-5-[({1-[2-fluoro-4-(trifluoromethyl)phenyl]cyclopropyl}carbonyl)amino]benzoic acid] | 8.7 |
| COCCn1cc(-c2ccc(NC(=O)C3(c4ccc(C(F)(F)F)cc4F)CC3)cc2C(=O)O)cn1 [Example 155, 5-[({1-[2-Fluoro-4-(trifluoromethyl)phenyl]cyclopropyl}carbonyl)amino]-2-[1-(2-methoxyethyl)-1H-pyrazol-4-yl]benzoic acid] | 270 |
| CCc1ccc(-c2ccc(NC(=O)C3(c4ccc(C(F)(F)F)cc4F)CC3)cc2C(=O)O)cn1 [Example 160, 2-(6-Ethylpyridin-3-yl)-5-[({1-[2-fluoro-4-(trifluoromethyl)phenyl]cyclopropyl}carbonyl)amino]benzoic acid] | 21 |
| CCc1ccc(-c2ccc(NC(=O)C3(c4ccc(OC(F)(F)F)cc4F)CC3)cc2C(=O)O)cn1 [Example 161, 2-(6-Ethylpyridin-3-yl)-5-[({1-[2-fluoro-4-(trifluoromethoxy)phenyl]cyclopropyl}carbonyl)amino]benzoic acid] | 15 |
| Cn1ncc2ccc(-c3ccc(NC(=O)C4(c5ccc(OC(F)(F)F)cc5F)CC4)cc3C(=O)O)cc21 [Example 164, 5-[({1-[2-Fluoro-4-(trifluoromethoxy)phenyl]cyclopropyl}carbonyl)amino]-2-(1-methyl-1H-indazol-6-yl)benzoic acid] | 120 |
| Cn1ncc2ccc(-c3c(F)cc(NC(=O)C4(c5ccc(OC(F)(F)F)cc5F)CC4)cc3C(=O)O)cc21 [Example 166, 3-Fluoro-5-[({1-[2-fluoro-4-(trifluoromethoxy)phenyl]cyclopropyl}carbonyl)amino]-2-(1-methyl-1H-indazol-6-yl)benzoic acid] | 24 |
| Cc1cnc(-c2ccc(NC(=O)C3(c4ccc(C(F)(F)F)cc4F)CC3)cc2C(=O)O)cn1 [Example 169, 5-[({1-[2-Fluoro-4-(trifluoromethyl)phenyl]cyclopropyl}carbonyl)amino]-2-(5-methylpyrazin-2-yl)benzoic acid] | 2100 |
| O=C(O)c1cc(NC(=O)C2(c3ccc(OC(F)(F)F)cc3F)CC2)ccc1-c1cn(C2CCC2)cn1 [Example 170, 2-(1-Cyclobutyl-1H-imidazol-4-yl)-5-[({1-[2-fluoro-4-(trifluoromethoxy)phenyl]cyclopropyl}carbonyl)amino]benzoic acid] | 2100 |
| COc1ccc(C2(C(=O)Nc3ccc(-c4cnn(C5CCC5)c4)c(C(=O)O)c3)CC2)c(F)c1 [Example 171, 2-(1-Cyclobutyl-1H-pyrazol-4-yl)-5-({[1-(2-fluoro-4-methoxyphenyl)cyclopropyl]carbonyl}amino)benzoic acid] | 390 |

Now from value to compound:

| IC50 [nM] | Compound |
| --- | --- |
| 18 | CCn1cc(-c2c(F)cc(NC(=O)C3(c4ccc(C(F)(F)F)cc4F)CC3)cc2C(=O)O)cn1 [Example 138, 2-(1-Ethyl-1H-pyrazol-4-yl)-3-fluoro-5-[({1-[2-fluoro-4-(trifluoromethyl)phenyl]cyclopropyl}carbonyl)amino]benzoic acid] |
| 78 | Cn1cc(-c2c(F)cc(NC(=O)C3(c4ccc(C(F)(F)F)cc4F)CC3)cc2C(=O)O)cn1 [Example 143, 3-Fluoro-5-[({1-[2-fluoro-4-(trifluoromethyl)phenyl]cyclopropyl}carbonyl)amino]-2-(1-methyl-1H-pyrazol-4-yl)benzoic acid] |
| 3.7 | O=C(O)c1cc(NC(=O)C2(c3ccc(Cl)cc3F)CC2)ccc1-c1cnc(C2CCC2)s1 [Example 146, 5-({[1-(4-Chloro-2-fluorophenyl)cyclopropyl]carbonyl}amino)-2-(2-cyclobutyl-1,3-thiazol-5-yl)benzoic acid] |
| 13 | Cc1ccc(C2(C(=O)Nc3ccc(-c4cnc(C5CCC5)s4)c(C(=O)O)c3)CC2)c(F)c1 [Example 147, 2-(2-Cyclobutyl-1,3-thiazol-5-yl)-5-({[1-(2-fluoro-4-methylphenyl)cyclopropyl]carbonyl}amino)benzoic acid] |
| 3.4 | O=C(O)c1cc(NC(=O)C2(c3ccc(C(F)(F)F)cc3F)CC2)ccc1-c1cnc(C2CCC2)s1 [Example 148, 2-(2-Cyclobutyl-1,3-thiazol-5-yl)-5-[({1-[2-fluoro-4-(trifluoromethyl)phenyl]cyclopropyl}carbonyl)amino]benzoic acid] |
| 3.2 | O=C(O)c1cc(NC(=O)C2(c3ccc(OC(F)(F)F)cc3F)CC2)ccc1-c1cnc(C2CCC2)s1 [Example 149, 2-(2-Cyclobutyl-1,3-thiazol-5-yl)-5-[({1-[2-fluoro-4-(trifluoromethoxy)phenyl]cyclopropyl}carbonyl)amino]benzoic acid] |
| 14 | CCc1ccc(-c2c(F)cc(NC(=O)C3(c4ccc(C(F)(F)F)cc4F)CC3)cc2C(=O)O)cn1 [Example 162, 2-(6-Ethylpyridin-3-yl)-3-fluoro-5-[({1-[2-fluoro-4-(trifluoromethyl)phenyl]cyclopropyl}carbonyl)amino]benzoic acid] |
| 63 | Cn1ncc2ccc(-c3c(F)cc(NC(=O)C4(c5ccc(C(F)(F)F)cc5F)CC4)cc3C(=O)O)cc21 [Example 165, 3-Fluoro-5-[({1-[2-fluoro-4-(trifluoromethyl)phenyl]cyclopropyl}carbonyl)amino]-2-(1-methyl-1H-indazol-6-yl)benzoic acid] |
| 3.4 | O=C(O)c1cc(NC(=O)C2(c3ccc(C(F)(F)F)cc3F)CC2)ccc1-c1cnc(C2CCCC2)s1 [Example 167, 2-(2-Cyclopentyl-1,3-thiazol-5-yl)-5-[({1-[2-fluoro-4-(trifluoromethyl)phenyl]cyclopropyl}carbonyl)amino]benzoic acid] |
| 3.3 | O=C(O)c1cc(NC(=O)C2(c3ccc(C(F)(F)F)cc3F)CC2)cc(F)c1-c1cnc(C2CCC2)s1 [Example 168, 2-(2-Cyclobutyl-1,3-thiazol-5-yl)-3-fluoro-5-[({1-[2-fluoro-4-(trifluoromethyl)phenyl]cyclopropyl}carbonyl)amino]benzoic acid] |
| 30 | O=C(O)c1cc(NC(=O)C2(c3ccc(C(F)(F)F)cc3F)CC2)cc(F)c1-c1cnn(CC(F)(F)F)c1 [Example 172, 3-Fluoro-5-[({1-[2-fluoro-4-(trifluoromethyl)phenyl]cyclopropyl}carbonyl)amino]-2-[1-(2,2,2-trifluoroethyl)-1H-pyrazol-4-yl]benzoic acid] |

Reference: patent US12023319B2, “Carboxylic acid aromatic amides” (priority 2016, dated 2024)
